# Results as given in patent US9012407B2, “Therapies which act on neuropeptide S receptors” (The Regents of the University of California, priority 2004, dated 2015).
# Tests used:
# C57Bl/6 mice [1] = assay: Marble-burying paradigm; assay type: in vivo; conditions: 30 min observation, 18 marbles per cage, i.c.v.
# Source text: Many anxiolytic drugs increase exploratory activity in the open field, light-dark box or elevated plus maze paradigms. However, compounds stimulating locomotion could produce false-positive effects in these tests because the enhanced exploration could be secondary to the increase in general activity. In order to validate the observed anxiolytic-like effects of NPS, we tested increasing doses of NPS in the marble-burying paradigm. Mice tend to bury objects such as glass marbles present in their environment. Anxiolytic drugs such as benzodiazepines reduce the number of marbles buried over a fixed period of time. […]
# Locomotion was monitored in rectangular plexiglass boxes (60×40×50 cm). Horizontal activity was measured over 60 min by 18×12 infrared sensors placed 2 cm above the floor. […] Marble burying was measured in mice placed individually in polypropylene cages (30×18×12 cm) containing 18 glass marbles (1.5 cm diameter) evenly spaced on 5 cm deep rodent bedding (bed-o'cob, The Andersons Inc., Maumee, Ohio) (Njung'e and Handley, 1991). […] Cages were covered with a metal grid and the number of marbles covered at least two-thirds was counted after 30 min.
# NPSR Ile^107 = biological target: T1, NPSR Ile^107 (Homo sapiens, UniProt Q6W5P4, N107I); assay: Intracellular Ca2+ mobilization (FLIPR) in HEK 293 cells stably expressing NPSR Ile107; assay type: cell-based; conditions: Ca2+ mobilization, cAMP formation or MAPK phosphorylation
# T1 construct: The Ile^107 isoform of NPSR was generated by PCR using synthetic oligonucleotides and the Quik Change Site-Directed Mutagenesis kit from Stratagene; expressed in transfected cells
# T1 sequence (Q6W5P4 1-371 N107I): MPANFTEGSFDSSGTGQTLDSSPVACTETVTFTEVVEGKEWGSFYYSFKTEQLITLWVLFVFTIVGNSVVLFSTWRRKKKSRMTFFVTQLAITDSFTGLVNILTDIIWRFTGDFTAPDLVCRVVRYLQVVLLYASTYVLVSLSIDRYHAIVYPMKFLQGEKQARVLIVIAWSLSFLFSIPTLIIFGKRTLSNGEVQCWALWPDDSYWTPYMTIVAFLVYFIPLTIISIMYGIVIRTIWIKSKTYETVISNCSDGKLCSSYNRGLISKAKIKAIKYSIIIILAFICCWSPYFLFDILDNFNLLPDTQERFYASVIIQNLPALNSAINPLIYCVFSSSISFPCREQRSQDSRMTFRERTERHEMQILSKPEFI
# Experimental: Changes of agonist-induced intracellular Ca^2+ were measured using the FLIPR technology as described before (5, 6). NPS and truncated NPS peptides were a gift from Phoenix Pharmaceuticals (Belmont, Calif.). Dose-response curves were calculated using GraphPad Prism (Graph Pad, San Diego). Mean EC50 values of populations of stable clones expressing either wildtype or mutant NPSR were compared using unpaired t-test and p<0.05 was considered significant.
# Two cells lines expressing similar levels (measured by radioligand binding; see below) of either NPSR WT or NPSR Ile were chosen for detailed analyses of pharmacological parameters. […] In order to investigate whether this tenfold increase in agonist potency at NPSR lie was a general property of the receptor protein we compared a large number of stable clones expressing either NPSR WT or NPSR Ile^107 by establishing dose-response curves for each construct and calculating mean EC50 values for the populations.
# C57Bl/6 mice [2] = assay: Light-dark box; assay type: in vivo
# Experimental: Male C57Bl/6 mice (National Cancer Institute, Bethesda, MD), age 10-14 weeks, were group-housed (4 animals per cage) under controlled conditions (temperature 21±2° C.; relative humidity 50-60%; 12-hour light-dark cycle, lights on 6:00 AM) with free access to food and water. Prior to drug injections, mice were briefly anesthetized with halothane. NPS was dissolved in phosphate-buffered saline (PBS, pH 7.4) and injected i.c.v. (total volume: 2 μl) as described before (Laursen and Belknap, 1986). Mice were allowed to recover for 5 min and then placed in the observation apparatus.
# Locomotion was monitored in rectangular plexiglass boxes (60×40×50 cm). Horizontal activity was measured over 60 min by 18×12 infrared sensors placed 2 cm above the floor. A second row of sensors at 8 cm above the floor was used to record rearing events. The imaginary central zone was defined as a 30×20 cm rectangle in the middle of each observation area. Data were collected using MatLab (Mathworks, Natick, Mass.). Experimental procedures for open field, elevated plus-maze and light-dark box were described previously (Köster et al., 1999). Marble burying was measured in mice placed individually in polypropylene cages (30×18×12 cm) containing 18 glass marbles (1.5 cm diameter) evenly spaced on 5 cm deep rodent bedding (bed-o'cob, The Andersons Inc., Maumee, Ohio) (Njung'e and Handley, 1991). No food or water was present during the observation period. Cages were covered with a metal grid and the number of marbles covered at least two-thirds was counted after 30 min.
# NPSR C-alt = biological target: T2, NPSR C-alt (Homo sapiens, UniProt Q6W5P4); assay: CRE-luciferase reporter gene assay, HEK 293 cells, NPSR C-alt; assay type: cell-based; conditions: transiently transfected HEK cells; read-out: EC50, luciferase reporter induction
# T2 construct: The C-terminal splice variant of NPSR (NPSR C-alt, GPRA isoform B); expressed in transfected cells; host or cells: HEK 293 cells carrying the CRE-luciferase reporter, transient transfection, pcDNA3.1 hygro
# T2 sequence (Q6W5P4 1-377 isoform Q6W5P4-4): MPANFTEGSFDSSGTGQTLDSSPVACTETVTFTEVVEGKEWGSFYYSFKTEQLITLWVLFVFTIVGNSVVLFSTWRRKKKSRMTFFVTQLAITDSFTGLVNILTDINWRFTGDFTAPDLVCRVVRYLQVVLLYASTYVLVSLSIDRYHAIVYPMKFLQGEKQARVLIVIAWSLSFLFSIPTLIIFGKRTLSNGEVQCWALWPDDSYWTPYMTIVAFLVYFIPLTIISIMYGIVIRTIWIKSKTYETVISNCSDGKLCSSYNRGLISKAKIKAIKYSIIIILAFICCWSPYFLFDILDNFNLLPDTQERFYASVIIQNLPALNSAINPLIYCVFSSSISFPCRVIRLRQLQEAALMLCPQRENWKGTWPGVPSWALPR
# Source text: HEK 293 cells were stably transfected with a reporter gene containing 6 copies of a cAMP response element (CRE; sequence […]) in front of a luciferase reporter gene (Promega) cloned into pcDNA3.1 neo. One stable clone showing robust induction of reporter gene expression after forskolin challenge was chosen for further experiments. The different NPSR isoform cDNAs (cloned into pcDNA3.1 hygro) were transfected into these cells using lipofectamine and stable clones were selected. The same cells and procedures were also used for transient transfection. For induction of reporter gene expression cells were plated in 96-well plates and incubated with agonist for 5 hours in serum-free medium, followed by aspiration of the medium and cell lysis with 25 mM Tris-phosphate, pH 7.8, 2 mM dithiothreitol, 2 mM 1,2-diaminocyclohexane-N,N,N′,N′,-tetraacetic acid, 10% glycerol, 1% Triton X-100. After one freeze-thaw cycle aliquots of supernatant were transferred to white clear-bottom 96-well plates (Greiner) and luciferase content was quantified by bioluminescence (Luc-Screen, Applied Biosystems). Plates were counted in a scintillation counter using bioluminescence settings (MicroBeta, Wallac-Perkin Elmer).
substance,measurement,setting,value
"NPS: neuropeptide S, endogenous NPSR ligand; species of the peptide not stated at the place of the result (SFRNGVGTGMKKTSFQRAKS)",number of marbles buried,C57Bl/6 mice [1],dose-dependently reduced
same,efficacy at NPSR Ile107 as compared to the wildtype receptor,NPSR Ile^107,ten-fold
same,percentage of entries in the light area,C57Bl/6 mice [2]; 0.03-3 nmole i.c.v.,higher percentage
same,time in the light area,C57Bl/6 mice [2]; 0.03-3 nmole i.c.v.,prolonged time
same,number of transitions between the two compartments,C57Bl/6 mice [2]; 0.1-3 nmole i.c.v.,significantly increased
same,latency until first exit from the dark compartment,C57Bl/6 mice [2]; 0.3-3 nmole i.c.v.,significantly reduced
same,EC50,NPSR C-alt,146 ± 15.1 nM
